Measurements as given in patent US5605929A, “Methods and compositions for inhibiting 5α-reductase activity” (priority 1995, dated 1997).
Entries after “also recorded” stand apart in the source; their conditions may differ.

Columns and labels:
prostate = conditions: dog, in vivo; cited from earlier work
[1] = target: T1, 5α-Reductase of Rat Liver Microsomes (Rattus norvegicus, UniProt P24008); assay: biochemical
T1 sequence (P24008 1-259): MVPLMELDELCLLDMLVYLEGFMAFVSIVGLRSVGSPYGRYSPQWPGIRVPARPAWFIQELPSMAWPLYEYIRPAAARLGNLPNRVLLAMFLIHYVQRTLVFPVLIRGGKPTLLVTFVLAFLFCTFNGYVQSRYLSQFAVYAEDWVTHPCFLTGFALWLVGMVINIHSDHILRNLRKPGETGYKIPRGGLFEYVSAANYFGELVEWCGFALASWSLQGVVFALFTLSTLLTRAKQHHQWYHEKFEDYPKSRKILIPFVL

scalp baldness = conditions: topical to scalp; cited from earlier work
5α-reductase / prostate = conditions: cited from earlier work
rat pituitary cultures = conditions: cited from earlier work
[2] = test system: androgen-dependent organs; assay type: in vivo, rat; conditions: for effect on the body weight: up to 15 mg per day
Protocol: The control rats were injected with 0.3 ml of 30% ethanol.

[3] = target: T2, human 5α-reductase isozyme type 1 (Homo sapiens, UniProt P18405); assay: 4-[14C]testosterone reduction, human type 1 isozyme; assay type: biochemical
T2 construct: expressed in transfected cells; host or cells: Rat-1A cells infected with pMV7 retrovirus; microsomes of these cells
T2 sequence (P18405 1-259): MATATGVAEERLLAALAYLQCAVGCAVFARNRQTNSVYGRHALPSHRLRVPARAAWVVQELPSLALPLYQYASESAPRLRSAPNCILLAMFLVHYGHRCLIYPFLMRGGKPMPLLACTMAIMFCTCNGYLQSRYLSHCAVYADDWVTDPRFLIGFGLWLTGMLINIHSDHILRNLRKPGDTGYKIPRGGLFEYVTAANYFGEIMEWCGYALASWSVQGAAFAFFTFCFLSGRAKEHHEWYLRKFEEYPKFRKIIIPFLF
Excerpt: (§1) The cDNAs for the human type 1 and 2 5α-reductases were isolated from human prostate λZAP II™ cDNA libraries using the published sequence of the 5α-reductases, PCR™ and standard library screening techniques (Sambrook et al., 1989). The type 1 and 2 cDNAs correspond to nucleotides 31-870 and 28-829, respectively, of the published sequences for these 5α-reductases (Anderson and Russell, 1990; Anderson et al., 1991). The type 1 and 2 cDNAs were subcloned into the retroviral expression vector pMV7 (Kirschmeier et al., 1988) and high titer stocks of virus containing the type 1 and 2 cDNAs were generated using the packaging cells BOSC 23 293 (Kirschmeier et al., 1988). Rat.-1A cells (Pear et al., 1993) were infected with virus (Topp, 1981) and cells containing integrated retrovirus were selected for G418-SO4 resistance, (Brown and Scott, 1987).
(§2) Microsomes were prepared as described previously (Liang and Liao, 1992) from the liver of adult Sprague-Dawley female rats or Rat-1A cells expressing a specific type of human 5α-reductase. […] The data presented was based on the rate of reaction.
(§3) The reaction was started by the addition of 25 μl of microsomes (25 μg protein). The mixture was incubated at 37° for 30-60 min and stopped by addition of 0.5 ml of ethyl acetate and mixing for 1 min. The organic solvent extract was removed under vacuum.

type 1 5α-reductase = assay type: biochemical
Protocol: (§4) [^3 H]4-MA binding assay were described in detail previously (Liang and Liao, 1992; Liang et al., 1983). […] The reaction was started by the addition of 25 μl of microsomes (25 μg protein). After 30-60 min incubation at 0° C., the [^3 H]4-MA bound to microsomes was collected on a Whatman GF/F glass fiber, washed and radioactivity determined (Liang and Liao, 1992).
as §3

[4] = target: T2, human 5α-reductase isozyme type 1; assay: [3H]4-MA binding, human type 1 isozyme expressed in Rat-1A cells; conditions: read-out: % Inhibition of [^3 H]4-MA binding
Excerpt: as §1, §2, §4

[5] = target: T3, human 5α-reductase isozyme type 2 (Homo sapiens, UniProt P31213); assay: 4-[14C]testosterone reduction, human type 2 isozyme; assay type: biochemical; conditions: for activity on type 2 isozyme: enzymatic assay, concentrations below 30 μM for ECG/EGCG; for inhibition at 1 µM / inhibition at 3 µM / inhibition at 10 µM / inhibition at 30 µM / inhibition at 100 µM: read-out: % Inhibition of 5α-reduction
T3 construct: expressed in transfected cells; host or cells: Rat-1A cells infected with pMV7 retrovirus; microsomes of these cells
T3 sequence (P31213 1-254): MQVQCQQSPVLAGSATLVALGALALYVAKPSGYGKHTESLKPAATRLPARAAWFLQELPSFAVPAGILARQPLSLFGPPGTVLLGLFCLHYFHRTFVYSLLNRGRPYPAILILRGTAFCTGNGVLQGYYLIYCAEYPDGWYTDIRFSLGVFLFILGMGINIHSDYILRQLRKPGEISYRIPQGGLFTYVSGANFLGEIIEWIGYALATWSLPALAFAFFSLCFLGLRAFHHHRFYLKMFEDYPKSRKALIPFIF
Excerpt: as §1, §2, §3

[6] = NADPH oxidation in presence of microsomes
[7] = target: T1, 5α-Reductase of Rat Liver Microsomes; assay: [3H]4-MA binding assay, rat liver microsomes (tea catechins); conditions: for inhibition at 5 µM / inhibition at 10 µM / inhibition at 20 µM / inhibition at 40 µM / inhibition at 200 µM: read-out: % Inhibition of [^3 H]4-MA binding
In short: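 Microsomes from adult female Sprague-Dawley rat liver or Rat-1A cells expressing human 5α-reductase, 25 μg protein per reaction. Incubation 30–60 min at 0 °C; microsome-bound [3H]4-MA collected on glass-fibre filters and counted. Duplicate or triplicate determinations, values based on reaction rate.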

[8] = test system: prostate and preputial organ; assay: Catechins ip 7 days, large rats; assay type: in vivo, rat; conditions: 15 mg ip/day, 7 days
Protocol: Male Sprague Dawley rats, 172±20 g body weight, were used. Each group had 5 rats. […] The control rats received 0.3 ml of 30% ethanol.

Soybean lipoxygenase = Soybean lipoxygenase (Glycine max, UniProt P08170); conditions: cited from earlier work
[9] = target: T3, human 5α-reductase isozyme type 2; assay: [3H]4-MA binding, human type 2 isozyme expressed in Rat-1A cells; conditions: read-out: % Inhibition of [^3 H]4-MA binding
Excerpt: as §1, §2, §4

[10] = test system: Human Prostatic Cancer Cells; assay: Cell morphology during 2 hour incubation; assay type: cell-based
[11] = test system: 17β-steroid dehydrogenase; assay: 4-Androstenedione formation from [3H]testosterone by PC-3 cells (17β-steroid dehydrogenase); assay type: cell-based, human
PC-3 = assay: 5α-DHT formation from [3H]testosterone by PC-3 cells; assay type: cell-based, human
hamster flank organ = assay: Flank organ, castrated immature male hamsters, topical treatment; assay type: in vivo, Syrian golden hamster
In short: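 Castrated immature male hamsters (5 per group) received 5 μl once daily on the right flank organ of ethanol vehicle, androgen (T or 5α-DHT), fatty acid, or androgen plus fatty acid. The left organ was left untreated. Pigmented macule and sebaceous gland growth were assessed with caliper long and short axes, as mean ± SD.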

[12] = read-out: % Inhibition of 5α-reduction

Soybean lipoxygenase, sequence (P08170 whole entry): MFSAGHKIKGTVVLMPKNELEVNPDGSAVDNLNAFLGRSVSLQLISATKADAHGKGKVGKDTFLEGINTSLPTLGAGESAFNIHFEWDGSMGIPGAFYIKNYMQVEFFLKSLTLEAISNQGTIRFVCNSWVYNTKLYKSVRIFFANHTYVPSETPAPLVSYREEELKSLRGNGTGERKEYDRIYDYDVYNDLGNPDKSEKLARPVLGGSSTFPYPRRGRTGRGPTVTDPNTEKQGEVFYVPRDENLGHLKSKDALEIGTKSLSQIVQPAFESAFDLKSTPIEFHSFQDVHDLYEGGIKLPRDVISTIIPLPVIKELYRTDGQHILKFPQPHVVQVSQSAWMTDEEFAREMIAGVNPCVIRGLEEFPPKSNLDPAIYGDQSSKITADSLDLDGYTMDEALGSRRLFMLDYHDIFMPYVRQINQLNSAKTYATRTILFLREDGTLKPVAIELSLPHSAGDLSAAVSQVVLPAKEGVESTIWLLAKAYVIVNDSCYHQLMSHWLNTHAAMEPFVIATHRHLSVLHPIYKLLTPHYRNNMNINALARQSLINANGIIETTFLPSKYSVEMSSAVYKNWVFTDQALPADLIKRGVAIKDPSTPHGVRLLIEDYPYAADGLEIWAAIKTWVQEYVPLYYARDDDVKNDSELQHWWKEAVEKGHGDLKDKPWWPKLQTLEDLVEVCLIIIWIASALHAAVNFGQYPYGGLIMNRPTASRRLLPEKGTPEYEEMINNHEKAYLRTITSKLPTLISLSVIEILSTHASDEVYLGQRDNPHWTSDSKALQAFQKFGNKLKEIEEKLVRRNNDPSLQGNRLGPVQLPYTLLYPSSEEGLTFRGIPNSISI

## CCN(CC)C(=O)[C@H]1CC[C@H]2[C@@H]3CC[C@H]4N(C)C(=O)CC[C@]4(C)[C@H]3CC[C@]12C [4-MA, 17β-N,N-diethylcarbamoyl-4-methyl-4-aza-5α-androstan-3-one]
prostate
  prostate size: the prostate size decreases
[1]
  Ki: 0.013 µM
Scalp baldness
  baldness: prevented the baldness; also recorded: effective in preventing male pattern baldness
5α-reductase / prostate; castrated rats + testosterone
  effect on prostate growth: attenuated the growth of the prostate
5α-reductase / prostate; intact or castrated male rats given testosterone propionate
  effect on prostatic 5α-DHT: decreasing the prostatic concentration of 5α-DHT
Rat pituitary cultures
  testosterone inhibition of LH release: did not affect testosterone inhibition of LH release

## O=C(O[C@@H]1Cc2c(O)cc(O)cc2O[C@@H]1c1ccc(O)c(O)c1)c1cc(O)c(O)c(O)c1 [ECG, (-)Epicatechin-3-gallate]
[2]; 10 and 15 mg per day
  effect on all organs examined: less than 20%
[2]
  effect on the body weight: No significant effect
[3]; enzymatic assay
  IC50: ~10 µM
[3]; [12]
  inhibition at 1 µM: 20%
  inhibition at 3 µM: 27%
  inhibition at 10 µM: 47%
  inhibition at 30 µM: 90%
  inhibition at 100 µM: 99%
Type 1 5α-reductase
  competition with testosterone or NADPH: did not appear to compete with testosterone or NADPH
[4]
  inhibition at 1 µM: 34%
  inhibition at 3 µM: 47%
  inhibition at 10 µM: 79%
  inhibition at 30 µM: 87%
  inhibition at 100 µM: 79%
[5]
  activity on type 2 isozyme: did not inhibit the Type 2 isozyme
  inhibition at 1 µM: < 10%
  inhibition at 3 µM: < 10%
  inhibition at 10 µM: < 10%
  inhibition at 30 µM: < 10%
  inhibition at 100 µM: 82%
[6]
  NADPH oxidation: did not induce NADPH oxidation
[7]
  inhibition at 5 µM: 25%
  inhibition at 10 µM: 44%
  inhibition at 20 µM: 74%
  inhibition at 40 µM: 88%
  inhibition at 200 µM: 92%
[7]; type 1 5α-reductase of rat liver microsomes, read-out: IC50
  IC50: 12 µM
[8]
  effect on the body weights: less than 10%
Soybean lipoxygenase
  IC50: 18 µM
[9]
  inhibition at 1 µM: 17%
  inhibition at 3 µM: 17%
  inhibition at 10 µM: 45%
  inhibition at 30 µM: 76%
  inhibition at 100 µM: 80%

## Oc1cc(O)c2c(c1)O[C@H](c1cc(O)c(O)c(O)c1)[C@H](O)C2 [EGC, (-)Epigallocatechin]
[2]
  effect on the body weight: No significant effect
[3]; enzymatic assay
  activity on type 1 isozyme: not active
[3]; [12]
  inhibition at 1 µM: < 10%
  inhibition at 3 µM: < 10%
  inhibition at 10 µM: < 10%
  inhibition at 30 µM: < 10%
[4]
  inhibition at 1 µM: < 10%
  inhibition at 3 µM: < 10%
  inhibition at 10 µM: < 10%
  inhibition at 30 µM: < 10%
  inhibition at 100 µM: 23%
[5]
  activity on type 2 isozyme: not active
  inhibition at 1 µM: < 10%
  inhibition at 3 µM: < 10%
  inhibition at 10 µM: < 10%
  inhibition at 30 µM: < 10%
  inhibition at 100 µM: < 10%
[7]
  inhibition at 5 µM: < 10%
  inhibition at 10 µM: < 10%
  inhibition at 20 µM: < 10%
  inhibition at 40 µM: < 10%
  inhibition at 200 µM: < 10%
Soybean lipoxygenase
  IC50: 21 µM
[9]
  inhibition at 1 µM: < 10%
  inhibition at 3 µM: < 10%
  inhibition at 10 µM: < 10%
  inhibition at 30 µM: 13%
  inhibition at 100 µM: 14%

## CCCCCCCCCCCCCCCCCC(=O)O [Stearic acid]
[10]
  visible change in cell morphology: did not produce any visible
[1]; read-out: % Inhibition of [^3 H]4-MA binding, Table 1, 10 μM
  inhibition at 10 µM: < 10%
[1]; read-out: % Inhibition of [^3 H]4-MA binding, Table 1, 40 μM
  inhibition at 40 µM: < 10%
[1]; read-out: % Inhibition of [^3 H]4-MA binding, Table 1, 200 μM
  inhibition at 200 µM: < 10%
[1]; read-out: % Inhibition of [^3 H]4-MA binding, Table 2, 10 μM
  inhibition at 10 µM: < 10%
[1]; read-out: % Inhibition of [^3 H]4-MA binding, Table 2, 40 μM
  inhibition at 40 µM: < 10%
[1]; read-out: % Inhibition of [^3 H]4-MA binding, Table 2, 200 μM
  inhibition at 200 µM: < 10%
[11]; 5 μM
  4-Androstendione formed (% of control): 103 ± 2 % of control
[11]; 20 μM
  4-Androstendione formed (% of control): 106 ± 5 % of control
[11]; words
  effect on metabolism of testosterone to 4-androstenedione (17β-steroid dehydrogenase): did not affect
PC-3; 5 to 20 μM, words
  effect on 5α-reductase reduction: did not affect
PC-3; Homo sapiens, PC-3, 5 μM, read-out: 5α-DHT formed (% of control)
  activity at 5 µM: 123 ± 2%
PC-3; Homo sapiens, PC-3, 20 μM, read-out: 5α-DHT formed (% of control)
  activity at 20 µM: 121 ± 5%
Hamster flank organ; Table 4, 1 mg fatty acid alone, 18 days
  Pigmented Macule, Untreated (L): 4.4 ± 0.4 mm^2
Hamster flank organ; Table 4, 2 mg fatty acid alone, 18 days
  Pigmented Macule, Untreated (L): 4.6 ± 1.4 mm^2
Hamster flank organ; Table 4, T 0.5 μg + 1 mg fatty acid
  Pigmented Macule, Untreated (L): 4.3 ± 0.6 mm^2
Hamster flank organ; Table 4, T 0.5 μg + 2 mg fatty acid
  Pigmented Macule, Untreated (L): 4.2 ± 0.4 mm^2
Hamster flank organ; Table 4, T + 1 mg fatty acid
  significance vs T alone: N.S.
Hamster flank organ; Table 4, T + 2 mg fatty acid
  significance vs T alone: N.S.
Hamster flank organ; hamster, in vivo
  inhibition of T-induced growth of pigmented macule: did not inhibit
